What was measured:
rat MIF = target: T1, rat MIF (Rattus norvegicus, UniProt P30904); assay: Binding to immobilized rat MIF by surface plasmon resonance (BIACORE 3000); conditions: 10 μM in PBS, rat MIF immobilized on sensor chip CM5
T1 construct: the region encoding MIF was amplified from the complementary DNA (cDNA) library of rat and mouse brains; made in house; host or cells: Escherichia coli BL21 (DE3)
Description: The binding of rat MIF obtained in REFERENCE EXAMPLE 6 to Compound 1 obtained in REFERENCE EXAMPLE 1 was analyzed using BIACORE 3000 (manufactured by Biacore).
Rat MIF was immobilized on a sensor chip CM5 (manufactured by Biacore). Then, phosphate buffered saline (PBS) containing 10 μM of Compound 1 was flown over the sensor chip and changes in the surface plasmon resonance signal were monitored as the binding of the compound to rat MIF.
Rat MIF obtained in REFERENCE EXAMPLE 6 was immobilized on a sensor chip CM5 (manufactured by Biacore Co., Ltd.). Thereafter, phosphate buffered saline (PBS) containing 10 μM of 3-[2-(4-oxo-4H-1,3-benzothiazin-2-yl)-4-pyridyl]propionic acid (the compound of EXAMPLE 308 described in WO 03/020719) was flown over the sensor chip and changes in surface plasmon resonance signal were monitored as the binding of the compound to rat MIF.

[1] = test system: Normal human umbilical vein endothelial cells; assay: Inhibitory activity against serum depletion-induced cell death of vascular smooth muscle; type: cell-based; conditions: serum-free MCDB131 medium, 3 days, WST-8
[2] = test system: genes under control of Antioxidant response element (ARE); assay: Gene expression analysis by DNA chip; type: cell-based, rat; conditions: for Increasing Rate of Expression: 21 hours, without compound = 1
Description: After gently stiffing, the plate was washed 3 times with Medium 199 medium to remove serum. […] The medium was then removed and total RNA was recovered using RNeasy Mini Kit (manufactured by QIAGEN). Using the total RNA, exhaustive analysis of gene expression was performed on GeneChip arrays for expression analysis (Rat Genome U34A Arrays: manufactured by AFFYMETRIX). The increasing rate of expression of each gene was expressed in terms of the expression level with the addition of the compound, when the expression level without addition of any compound was made 1.

heme oxygenase-1 = assay: Heme oxygenase-1 production-increasing activity (western blotting); type: cell-based, rat; conditions: for Increasing Rate of Production (heme oxygenase-1): 24 hours, without compound = 1
Description: The plate was washed 3 times with Medium 199 medium to remove serum. Compound I was added to the plate, followed by incubation for 24 hours at 37° C. and 5% CO2. After completion of the incubation, the cardiomyocytes were washed once with PBS(−), and 100 μl of cell lysis buffer [10 mM Tris(hydroxymethyl)aminomethane, pH 7.4, 150 mM NaCl, 1 mM EDTA.2Na, 1 mM ethylene glycol-bis(β-aminoethylether]-N,N,N′,N′-tetraacetic acid, 0.5 mM (p-aminophenyl)methanesulfonyl fluoride hydrochloride, 200 μM sodium β-glycerophosphate n-hydrate, 20 mM NaF, 2 mM sodium diphosphate decahydrate, 10 μg/ml aprotinin, 10 μg/ml leupeptin, 1% Triton X-100, 0.5% Nonidet P40, 0.1% sodium dodesyl sulfate) was added thereto. After the cell debris was scraped from the plate using a cell scraper, the cell lysis buffer was recovered. The recovered cell lysis buffer was mixed with a sample buffer (Tris-SDS-ME Sample Buffer; manufactured by Daiichi Pure Chemicals Co., Ltd.) in an equal volume. The mixture was heat-treated at 95° C. for 5 minutes, followed by SDS polyacrylamide electrophoresis using Multigel (manufactured by Daiichi Pure Chemicals Co., Ltd.). Next, nitrocellulose membrane (Hybond-ECL; manufactured by Amersham Pharmacia Biotech) soaked in a blotting buffer [0.1 M Tris(hydroxymethyl)aminomethane, 0.192 M glycine, 20% ethanol] for at least 10 minutes, blotting filter paper, dialysis membrane and gel were set on Horize-Blot (manufactured by ATTO, Co.) and treated with 100 mA/gel (64 cm^2) for an hour to adsorb the protein in the gel onto the nitrocellulose membrane. Thereafter, the nitrocellulose membrane was soaked in a blocking buffer [TTBS buffer (20 mM Tris-HCl, pH 7.6, 0.137 M NaCl, 0.1% Tween-20) containing 5% skimmed milk powders] and stirred at room temperature for an hour for blocking. […] After completion of the reaction, the membrane was washed 3 times with TTBS buffer and the amount of protein was determined using a western blotting detection reagent (ECL+Plus; manufactured by Amersham) and Hyperfilm ECL (manufactured by Amersham). […]

With `O=c1nc(-c2ccccn2)sc2ccccc12` [Compound 1, 2-(2-Pyridyl)-4H-1,3-benzothiazin-4-one] the “binding of the compound to rat MIF (changes in surface plasmon resonance signal)” value (rat MIF) was “binds to MIF”, the “inhibition of cell death induced by serum depletion” value [1] was “exhibits the activity of inhibiting vascular smooth muscle cell death induced by serum depletion” and the “Increasing Rate of Expression” value ([2]; Bilirunin-specific UDP-glucuronosyltransferase) was 5.2. For the same compound, the “Increasing Rate of Expression” value ([2]; Gamma-glutamylcysteine synthetase) was 2.4, the “Increasing Rate of Expression” value ([2]; Glutathione S-transferase Yb subunit) was 2.5 and the “Increasing Rate of Expression” value ([2]; Glutathione S-transferase Yc1 subunit) was 2.1. For the same compound, the “Increasing Rate of Expression” value ([2]; Heme oxygenase-1) was 2.0, the “Increasing Rate of Expression” value ([2]; Liver glutathione S-transferase Ya subunit) was 11.6 and the “Increasing Rate of Expression” value ([2]; Liver glutathione S-transferase Yc subunit) was 2.3. The “Increasing Rate of Expression” value ([2]; NAD(P)H-menadione oxidereductase) was 2.8, the “Increasing Rate of Expression” value ([2]; NAD(P)H: quinone reductase) was 9.4 and the “Increasing Rate of Expression” value ([2]; UDP-glucuronosyltransferase, exon 1) was 5.0. The “expression of the genes under control of Antioxidant response element (ARE)” value ([2]; statement in words) was “enhances expression of the genes under control of Antioxidant response element (ARE)”, the “Increasing Rate of Production (heme oxygenase-1)” value (heme oxygenase-1; 0.04 μM) was 1.6 and the “Increasing Rate of Production (heme oxygenase-1)” value (heme oxygenase-1; 0.4 μM) was 2.5. The “production amount of heme oxygenase-1” value (heme oxygenase-1; statement in words) was “increases the production amount of heme oxygenase-1”.

— patent US8173360B2, “Cell death inhibitor” (Takeda Pharmaceutical Company Limited, priority 2002, dated 2012)
